Laboratory results from ChEMBL document CHEMBL1156829 (Proc Natl Acad Sci U S A, 2008).

What was measured:
Plasmodium falciparum [1] = assay: NOVARTIS: Inhibition of Plasmodium falciparum 3D7 (drug-susceptible) proliferation in erythrocyte-based infection assay; type: functional, organism-based; conditions: Plasmodium falciparum, 3D7
Plasmodium falciparum [2] = assay: NOVARTIS: Inhibition of Plasmodium falciparum W2 (drug-resistant) proliferation in erythrocyte-based infection assay; type: functional, organism-based; conditions: Plasmodium falciparum, W2; read-out: EC50
[3] = NOVARTIS: Cytotoxicity against human hepatocellular carcinoma cell line (Huh7); type: toxicity, cell-based, Huh-7; conditions: Huh7 cells (hepatocellular carcinoma cell line)

| Compound | EC50 (Plasmodium falciparum [1]) [µM] | EC50 (Plasmodium falciparum [2]) [µM] | CC50 [3] [µM] |
| --- | --- | --- | --- |
| CCC1CN2CCC1CC2C(O)c1ccnc2ccccc12 (configuration not stated) | 0.299 | 0.627 | > 100 |
| CCOC(=O)c1c(NC(=O)C(C)Sc2nnc(CNC(=O)c3ccco3)n2-c2cccc(C(F)(F)F)c2)sc2c1CCC2 (configuration not stated) | > 12.5 | 0.649 | > 100 |
| CN(CCCNc1ccnc2cc(Cl)ccc12)C(=O)C1CC1 | 0.164 | 0.0467 | > 7.25 |
| O=C(Nc1ccc(C2=NCCN2)cc1)Nc1cc(C(=O)Nc2ccc(C3=NCCN3)cc2)ccc1C(=O)Nc1ccc(C2=NCCN2)cc1 | 0.0997 | 0.0629 | > 10 |
| COc1ccc(C=NNc2cc(C)nc3ccc(OC)cc23)c(OC)c1 | 0.0331 | 0.0435 | 6.69 |
| Cn1nc(C(F)(F)F)c(-c2ccc(F)cc2)c1NC(=O)Nc1ccccc1 | 0.392 | 0.353 | 54.3 |
| CN(C)CCNC(=O)c1cc2c(-c3ccc(Cl)cc3)nn(C)c2s1 | 0.339 | 0.422 | 64.6 |
| CN(C)CCCNc1ncnc2c1[nH]c1ccc(F)cc12 | 0.0931 | 0.305 | 48.7 |
| Fc1ccc(Nc2nc(NCc3ccccc3)c3ccccc3n2)cc1 | 0.0755 | 0.0586 | 8.87 |
| CCCN1CCc2c(sc3nc(SC)n(-c4ccccc4)c(=O)c23)C1 | 0.947 | 0.627 | > 100 |
| COc1ccc(CCNC2(Cc3ccccc3)CC(C)N(C)CC2C)cc1OC (configuration not stated) | 0.62 | 0.268 | 42.7 |
| CC(=O)N1CCC(N(C(=O)Nc2c(F)cccc2F)C(C)C)CC1 | > 12.5 | 0.625 | > 100 |
| COc1cc(C(Nc2ccccn2)c2ccc3cccnc3c2O)cc(Br)c1OC (configuration not stated) | 0.368 | 0.219 | > 35 |
| CCCCn1c(=N)n(CC(O)c2ccc(Br)cc2)c2ccccc21 (configuration not stated) | 0.466 | 0.141 | 22.5 |
| CC(=O)N(Cc1ccc(F)cc1)C1=C(NCCc2ccccc2)C(=O)c2ccccc2C1=O | 0.00593 | 0.0182 | 2.91 |
| O=C(Nc1ccc(O)cc1)c1cccc(S(=O)(=O)N2CCCCC2)c1 | 6.91 | 0.621 | > 100 |
| O=c1c2c([nH]c3cc(Cl)ccc13)CCCC2 | 0.333 | 0.649 | > 100 |
| CN(CCCNc1ccnc2cc(Cl)ccc12)C(=O)C(Cl)Cl | 0.0286 | 0.0914 | > 14.1 |
| O=C(Cn1c2ccccc2c(=O)c2ccccc21)Nc1ccc([N+](=O)[O-])c(Br)c1 | 1.11 | 0.632 | > 100 |
| O=C(NCc1ccco1)C1CCN(S(=O)(=O)c2ccc(Br)cc2)CC1 | 0.362 | 0.629 | > 100 |
| Cc1ccc2c(c1)NC(c1ccc(F)cc1)C1=C(CC(c3ccccc3)CC1=O)N2 (configuration not stated) | 0.833 | 0.635 | > 100 |
| COc1ccc(Nc2nc(NN=Cc3cccc([N+](=O)[O-])c3OC)nc(Nc3ccc([N+](=O)[O-])cc3)n2)cc1 | 0.221 | 0.635 | > 100 |
| CC1=C(C(=O)OC2CCCCC2)C(c2ccc(F)cc2)C2=C(CC(c3ccccc3)CC2=O)N1 (configuration not stated) | 3.69 | 0.653 | > 100 |
| COc1ccc(C=CC(=O)NC(=O)c2ccccc2O)cc1 | 0.132 | 0.479 | > 73.5 |
| COC(=O)C1=C(C)NC2=C(C(=O)CC(C)(C)C2)C1c1ccc(C)o1 (configuration not stated) | 1.58 | 0.638 | > 100 |
| OC1(c2cccc3ccccc23)CCN(Cc2ccccc2)C1 (configuration not stated) | 0.457 | 0.147 | 23.1 |
| Cc1ccn2c(NC(C)(C)CC(C)(C)C)c(-c3ccccc3OC(=O)/C=C/c3ccc([N+](=O)[O-])cc3)nc2c1 | > 1.39 | 0.0637 | > 10 |

| Compound | EC50 (Plasmodium falciparum [1]) [µM] | EC50 (Plasmodium falciparum [2]) [µM] | CC50 [3] [µM] |
| --- | --- | --- | --- |
| Cc1c2c(cc3c1ccc1ccccc13)C[N+]1(CCCCC1)C2 | 1.29 | 0.657 | > 100 |
| N#CC(=Cc1cn(Cc2ccccc2Cl)c2ccccc12)c1nn(CCO)c(N)c1C#N | 0.273 | 0.294 | 44.8 |
| COCCNC(=S)N(Cc1ccc(F)cc1)Cc1cc2ccc(C)c(C)c2[nH]c1=O | 0.412 | 0.0642 | > 10 |
| CC1=C(C(=O)OC(C)C)C(c2ccc([N+](=O)[O-])cc2)C2=C(CC(C)(C)CC2=O)N1 (configuration not stated) | 1.56 | 0.255 | 40 |
| CCOc1ccc(CCNC(=O)Nc2ccc(F)cc2)cc1OCC | 0.751 | 0.492 | > 74.7 |
| CC(C)CN1CCC(O)(c2ccc3oc(C(=O)Nc4ccc5c(c4)OCO5)cc3c2)CC1 | 1.08 | 0.363 | 55.2 |
| O=C(Nc1ccccc1[N+](=O)[O-])C1CC1(c1ccccc1)c1ccccc1 (configuration not stated) | > 12.5 | 0.647 | > 100 |
| COc1ccc(C2CC(=O)C3=C(C2)NC(C)=C(C(=O)OC2CCCC2)C3c2ccc(OC)cc2)cc1 (configuration not stated) | 3.26 | 0.649 | > 100 |
| COc1ccc(C2Nc3ccc4ccccc4c3C3=C2C(=O)CC(C)(C)C3)cc1Br (configuration not stated) | 3.19 | 0.649 | > 100 |
| Cc1ccc[n+](C(C)C(=O)c2ccc(-c3ccccc3)cc2)c1 (configuration not stated) | 1.61 | 0.649 | > 100 |
| COc1cc(NC(=O)C=Cc2ccccc2Cl)cc(OC)c1OC | 0.547 | 0.302 | 47.8 |
| O=C(Nc1ccc(-c2nc3ccc(-c4nc5ccc(NC(=O)c6cccc7ccccc67)cc5[nH]4)cc3[nH]2)cc1)c1cccc2ccccc12 | 0.742 | 0.641 | > 100 |
| Cc1ccc(C)c(NC(=O)c2c(-c3c(Cl)cccc3Cl)noc2C)c1 | 0.218 | 0.443 | > 70.7 |
| CC(C)N1CC=C(c2c[nH]c3ccccc23)CC1 | 0.206 | 0.637 | > 100 |
| CCN1CCCC1CNc1ncnc2c1[nH]c1ccc(C)cc12 (configuration not stated) | 0.269 | 0.138 | 21 |
| Cc1cc(C)n(CC(O)Cn2c3ccc(Br)cc3c3cc(Br)ccc32)n1 (configuration not stated) | 1.04 | 0.284 | 45.4 |
| CC1=C(C(=O)OCC(C)C)C(c2ccc(OCc3ccccc3)cc2)C2=C(CC(c3ccccc3)CC2=O)N1 (configuration not stated) | 0.961 | 0.659 | > 100 |
| O=C(O)c1ccc2c(c1)N=C(c1ccccc1)N(Cc1cccnc1)C2 | 0.476 | 0.0657 | > 10 |
| COc1ccc(Br)cc1CNC(=O)CCCN1C(=O)COc2ccc(C)cc21 | 1.88 | 0.628 | > 100 |
| Cc1ccc(C)c(Nc2nc(NCc3ccccc3)c3ccccc3n2)c1 | 0.246 | 0.0902 | 14.5 |
| CC(C)(C)CC(C)(C)Nc1c(-c2ccccc2OC(=O)c2ccc(C(F)(F)F)cc2)nc2ccccn12 | 0.67 | 0.064 | > 10 |
| Cc1c2c(n3c(nc4ccccc43)c1C#N)N(CCN(C)C)CC2 | 0.419 | 0.638 | > 100 |
| CCCCCOC(=O)C1=C(C)NC2=C(C(=O)CCC2)C1c1ccc(OC)c(Br)c1 (configuration not stated) | 0.615 | 0.65 | > 100 |
| COc1cc2c(-c3cc(Br)ccc3O)nc3c(c(-c4ccccc4)nn3-c3ccccc3)c2cc1OC | 1.15 | 0.655 | > 100 |
| Cc1cc2cc(C3C(C#N)=C(N)Oc4c3ccc3ccccc43)c(Cl)nc2cc1Cl (configuration not stated) | 0.24 | 0.629 | > 100 |
| OC1=C2C(=Nc3ccccc3SC2c2ccco2)c2ccccc21 (configuration not stated) | 0.251 | 0.35 | 55.3 |
| CN(C)c1ccc(-c2n(C)c3ccccc3[n+]2C)cc1 | 1.12 | 0.636 | > 100 |
